For one test, the target named is T1, human PPARα (Homo sapiens, UniProt Q07869).
T1 construct: expressed in transfected cells; host or cells: CV-1 (monkey kidney) cells, transient transfection
T1 sequence (Q07869 159-468): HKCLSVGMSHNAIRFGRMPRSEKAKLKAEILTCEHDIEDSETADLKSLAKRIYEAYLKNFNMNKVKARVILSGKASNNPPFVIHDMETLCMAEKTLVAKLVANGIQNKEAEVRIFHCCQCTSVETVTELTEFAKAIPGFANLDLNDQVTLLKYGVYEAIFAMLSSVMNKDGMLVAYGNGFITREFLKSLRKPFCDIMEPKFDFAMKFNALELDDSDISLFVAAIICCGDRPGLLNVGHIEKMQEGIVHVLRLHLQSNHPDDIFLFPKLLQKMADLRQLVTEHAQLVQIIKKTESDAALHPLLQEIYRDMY
Nature of the test: PPAR-GAL4 transactivation assay in transiently transfected CV-1 cells. Format: cell-based. Particulars: PPAR-GAL4 chimeric receptor, CV-1 cells; read-out: EC50(nM) hPPARα. The method, then: (§1) To assess the functional transcriptional activity of these compounds, cell-based assays using chimeric receptor Gal4 DNA-binding domain (DBD)-NR ligand binding domain cotransfection assay (LBDs of PPARα, PPARγ, and PPARδ) were performed. As an initial screen to determine the PPARα activity and selectivity, all compounds were evaluated for in vitro potency and selectivity by transfection testing, using CV-1 cells transfected with human and mouse PPARs. MH100×4 is a luciferase reporter with four copies of a GAL4 UASG response element, where GAL-I refers to the ligand-binding domain of the indicated receptor fused to the C-terminus of the GAL4 DNA-binding domain. Assays were performed using a Biomek automated workstation in which the genes for the nuclear receptor, as well as a plasmid containing a response element upstream of a luciferase cDNA, are transfected into CV-1 cells. Compounds were evaluated for their ability to activate human and mouse PPARs at […] test concentrations. […] The transactivation activity of the series of compounds (DY121-132, 10a-g) toward PPARα was expressed as EC50, which is the concentration of the test compound that affords half-maximum activity, as summarized in Table 1.
Cell-based reporter gene assays Cell based transactivation assays were performed in CV 1 cells as described (Forman, et al.). PPARα activity was assayed with a GAL4 reporter construct and fusion proteins containing the ligand binding domains of human PPARα, human PPARγ and human PPARδ linked to the DNA binding domain of yeast GAL4. Reporter constructs (300 ng/10^5 cells) and cytomegalovirus-driven expression vectors (20-50 ng/10^5 cells) were added as indicated along with CMX-b-gal (500 ng/10^5 cells) as an internal control. Cells were transiently transfected by Lipofectamine as described. Cells were incubated with DNA complexed liposomes for 2 h and subsequently treated for approximately 45 h with phenol red free DMEM FBS containing the indicated compounds. After exposure to ligand, the cells were harvested and assayed for luciferase and β-galactosidase activity. All points were assayed in triplicate and varied by less than 15%. Each experiment was repeated three or more times with similar results. Fold activation is reported.
(§2) In vitro binding and transfection studies. As an initial screen to determine the PPARα, PPARγ, and PPARδ activity, all compounds were evaluated for in vitro potency and selectivity by transfection testing, using CV-1 cells transfected with human and mouse PPARs. MH100×4 is a luciferase reporter with four copies of a GAL4 USAG response element, where GAL-I refers to the ligand-binding domain of the indicated receptor fused to the C-terminus of the GAL4 DNA-binding domain. Assays were performed using a Biomek automated workstation in which the gene for the nuclear receptor, as well as a plasmid containing a response element upstream of a luciferase cDNA, are transfected into CV-1 cells. Compounds were evaluated for their ability to activate human PPARs at 1, 2.5, 3, and 5 uM test concentrations.
(§3) Compounds were screened for agonist activity towards PPAR-GAL4 chimeric receptors in transiently transfected CV-1 cells as described. EC50 is the concentration of test compound that gave 50% maximum efficacy.

The target in another test is T2, mouse PPARα (Mus musculus, UniProt P23204).
T2 construct: expressed in transfected cells; host or cells: CV-1 (monkey kidney) cells, transient transfection
T2 sequence (P23204 159-468): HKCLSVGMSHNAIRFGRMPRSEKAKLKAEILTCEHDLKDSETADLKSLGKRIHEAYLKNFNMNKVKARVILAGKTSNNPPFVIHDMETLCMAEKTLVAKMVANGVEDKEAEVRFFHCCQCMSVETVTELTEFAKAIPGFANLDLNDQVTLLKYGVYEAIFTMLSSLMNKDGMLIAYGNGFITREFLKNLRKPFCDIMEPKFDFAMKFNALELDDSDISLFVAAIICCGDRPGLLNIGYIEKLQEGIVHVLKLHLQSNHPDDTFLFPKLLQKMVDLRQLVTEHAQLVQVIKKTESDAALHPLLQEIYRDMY
Described as above. Format: cell-based. Particulars: PPAR-GAL4 chimeric receptor, read-out: EC50(nM) mPPARα. As to the method:
as §1, §2, §3

For a further test, the target named is T3, PPARα (Homo sapiens, UniProt Q07869).
T3 construct: expressed in transfected cells; host or cells: CV-1 (monkey kidney) cells
T3 sequence (Q07869 1-468): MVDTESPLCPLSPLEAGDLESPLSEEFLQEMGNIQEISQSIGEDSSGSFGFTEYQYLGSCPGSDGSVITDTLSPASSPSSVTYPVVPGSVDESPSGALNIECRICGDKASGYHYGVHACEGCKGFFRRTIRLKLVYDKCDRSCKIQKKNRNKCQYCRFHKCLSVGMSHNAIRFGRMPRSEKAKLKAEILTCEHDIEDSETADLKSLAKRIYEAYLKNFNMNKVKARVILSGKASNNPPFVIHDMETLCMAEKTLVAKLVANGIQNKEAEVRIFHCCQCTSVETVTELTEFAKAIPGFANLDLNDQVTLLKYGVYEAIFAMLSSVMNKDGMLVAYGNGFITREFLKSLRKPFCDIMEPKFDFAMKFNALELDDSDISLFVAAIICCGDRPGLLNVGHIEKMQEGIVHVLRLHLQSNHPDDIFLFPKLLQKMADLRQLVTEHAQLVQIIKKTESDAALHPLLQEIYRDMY
T3 sequence (P19793 1-462 partner): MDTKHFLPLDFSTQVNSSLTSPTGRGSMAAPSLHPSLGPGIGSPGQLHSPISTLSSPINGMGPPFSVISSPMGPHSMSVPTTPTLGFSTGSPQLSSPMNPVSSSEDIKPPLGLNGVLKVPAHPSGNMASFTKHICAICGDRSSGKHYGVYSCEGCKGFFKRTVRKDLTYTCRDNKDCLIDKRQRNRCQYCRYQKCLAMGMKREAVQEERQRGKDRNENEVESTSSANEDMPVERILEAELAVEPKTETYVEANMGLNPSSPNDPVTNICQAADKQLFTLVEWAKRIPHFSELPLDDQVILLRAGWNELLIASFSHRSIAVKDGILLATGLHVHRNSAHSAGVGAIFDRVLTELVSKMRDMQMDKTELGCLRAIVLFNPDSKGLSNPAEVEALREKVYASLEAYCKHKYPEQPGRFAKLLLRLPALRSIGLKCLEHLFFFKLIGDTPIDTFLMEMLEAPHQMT
Nature of the test: PPRE-luc reporter assay in CV-1 cells co-transfected with PPARα and RXRα expression plasmids. The format is cell-based. To be noted: luciferase reporter. The method, then:
In brief, monkey kidney CV-1 cells were co-transfected with appropriate reporter constructs and expression vectors. The fold activation of the reporter construct by ligand was determined at several concentrations of selected compounds (FIG. 4).^20 To examine the effect of DY-compound on PPARα-mediated PPRE transcriptional activation, a PPRE-luc reporter assay was conducted using a PPRE-driven luciferase reporter-gene (PPRE-luc) plasmid and PPARα and RXRα gene expression plasmids in CV-1 cells.
Background: Reporter assays use an easily measured gene product as a stand-in for the process of interest.

Another test deals with C57Bl/6J female mice. As to the kind of experiment: Serum triglyceride and lipid effects in C57Bl/6J female mice. The format is in vivo. To be noted: FIG. 7.

The term EC50 denotes the midpoint of the concentration-response curve. On to `COc1cccc(Cn2c(CCCc3ccc(OC(C)(C)C(=O)O)cc3)nn(Cc3ccc(C)cc3)c2=O)c1` [10b, 2-(4-{3-[4-(3-Methoxy-benzyl)-1-(4-methyl-benzyl)-5-oxo-4,5-dihydro-1H[1,2,4]triazol-3-yl]-propyl}-phenoxy)-2-methyl-propionic acid], for which the values for the EC50 at human PPARα and at mouse PPARα were 2 nM and 20 nM, respectively.
For the compound `Cc1ccc(Cn2nc(CCCc3ccc(OC(C)(C)C(=O)O)cc3)n(Cc3ccccc3)c2=O)cc1` [10c, 2-(4-{3-[4-Benzyl-1-(4-methyl-benzyl)-5-oxo-4,5-dihydro-1H[1,2,4]triazol-3-yl]-propyl}-phenoxy)-2-methyl-propionic acid], the EC50 was 1.5 nM at human PPARα and 20 nM at mouse PPARα.
The corresponding values for `Cc1ccc(Cn2nc(CCCc3ccc(OC(C)(C)C(=O)O)cc3)n(Cc3ccc(F)cc3)c2=O)cc1` [10d, 2-(4-{3-[4-Fluoro-benzyl-1-(4-methyl-benzyl)-5-oxo-4,5-dihydro-1H[1,2,4]triazol-3-yl]-propyl}-phenoxy)-2-methyl-propionic acid] are 1.5 nM and 10 nM.
For the compound `Cc1ccc(Cn2nc(CCCc3ccc(OC(C)(C)C(=O)O)cc3)n(Cc3ccc(C)cc3)c2=O)cc1` [10e, 2-(4-{3-[4-Methyl-benzyl-1-(4-methyl-benzyl)-5-oxo-4,5-dihydro-1H[1,2,4]triazol-3-yl]-propyl}-phenoxy)-2-methyl-propionic acid], the values for the EC50 at human PPARα and at mouse PPARα were 1 nM and 3 nM, respectively. In addition, the “PPARα activation / PPRE-luc activity” value at PPARα is “highest PPARα activation”.
With `COc1cc(Cn2c(CCCc3ccc(OC(C)(C)C(=O)O)cc3)nn(Cc3ccc(C)cc3)c2=O)cc(OC)c1OC` [10f, 2-(4-{3-[3,4,5-Trimethoxy-benzyl-1-(4-methyl-benzyl)-5-oxo-4,5-dihydro-1H[1,2,4]triazol-3-yl]-propyl}-phenoxy)-2-methyl-propionic acid], the EC50 is 3 nM at human PPARα and 30 nM on mouse PPARα. Also, the “dose-response of triglyceride suppression” value in the test with C57Bl/6J female mice is “Dose-response suppression”.
For `Cc1ccc(Cn2nc(CCCc3ccc(OC(C)(C)C(=O)O)cc3)n(Cc3ccccc3Cl)c2=O)cc1` [10g, 2-(4-{3-[2-Chloro-benzyl-1-(4-methyl-benzyl)-5-oxo-4,5-dihydro-11H[1,2,4]triazol-3-yl]-propyl}-phenoxy)-2-methyl-propionic acid], the EC50 came out at 1 nM on human PPARα and 10 nM at mouse PPARα. On PPARα, the “PPARα activation / PPRE-luc activity” value is recorded as “highest PPARα activation”. Besides, in the test with C57Bl/6J female mice, the “dose-response of triglyceride suppression” value was “Dose-response suppression”.
As to `C=Cc1ccc(Cn2nc(CCCc3ccc(OC(C)(C)C(=O)O)cc3)n(Cc3ccc(C)cc3)c2=O)cc1` [10h], the values for the concentration for a half-maximal effect (EC50) on human PPARα and at mouse PPARα were 12 nM and 20 nM, respectively.

(Values after patent publication US20190077774A1, “PEROXISOME PROLIFERATOR-ACTIVATED RECEPTOR AGONISTS” (City of Hope, priority 2017, published 2019).)
